According to patent US10544106B2, “Certain chemical entities, compositions, and methods” (NeuPharma, Inc., priority 2016, dated 2020):

Target: BTK (Homo sapiens (Human), UniProt Q06187)
Experiment: Z'-LYTE kinase inhibition assay against BTK
Format: biochemical
Details: compound at 100 nM; ATP concentration at Km
In short: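 Z′-LYTE FRET readout: 1.04-10.4 ng BTK with 2 μM Tyr 01 peptide, ATP at Km, in 50 mM HEPES pH 7.5, 10 mM MgCl2, 1 mM EGTA, 0.01% BRIJ-35, 1% DMSO. 60 min kinase reaction at room temperature, then 60 min development; IC50 from 10-point, 3-fold titrations.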

Sequence of BTK (Q06187 whole entry): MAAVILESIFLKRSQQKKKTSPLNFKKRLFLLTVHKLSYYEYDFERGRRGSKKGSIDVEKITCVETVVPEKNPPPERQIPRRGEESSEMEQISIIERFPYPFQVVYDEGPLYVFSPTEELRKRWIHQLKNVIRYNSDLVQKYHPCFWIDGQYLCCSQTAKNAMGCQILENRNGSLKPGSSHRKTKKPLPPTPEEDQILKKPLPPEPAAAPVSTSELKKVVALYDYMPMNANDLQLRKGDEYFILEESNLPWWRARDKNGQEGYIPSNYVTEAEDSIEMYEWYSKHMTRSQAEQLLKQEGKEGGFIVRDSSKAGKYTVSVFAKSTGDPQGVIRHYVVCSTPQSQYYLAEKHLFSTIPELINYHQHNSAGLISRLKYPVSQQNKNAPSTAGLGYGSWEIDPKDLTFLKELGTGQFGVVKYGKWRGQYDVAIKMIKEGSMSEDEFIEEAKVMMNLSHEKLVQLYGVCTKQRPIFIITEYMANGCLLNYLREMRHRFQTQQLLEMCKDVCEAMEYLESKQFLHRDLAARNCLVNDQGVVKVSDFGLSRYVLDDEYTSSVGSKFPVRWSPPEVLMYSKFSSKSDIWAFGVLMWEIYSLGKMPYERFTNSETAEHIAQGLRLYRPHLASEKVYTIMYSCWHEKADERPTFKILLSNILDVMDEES

Inhibition at 0.1 µM, < 50%:
C=CC(=O)N1CCC(c2cc(-c3ccc(Oc4ccccn4)c(OC)c3)cc3cncnc23)C1 (stereo not shown) [C146, 1-(3-(6-(3-methoxy-4-(pyridin-2-yloxy)phenyl)quinazolin-8-yl)pyrrolidin-1-yl)prop-2-en-1-one]
C=CC(=O)N1CCC(c2cc(-c3ccc(C(=O)Nc4ccnnc4)cc3)cc3cncnc23)C1 (stereo not shown) [C147, 4-(8-(1-acryloylpyrrolidin-3-yl)quinazolin-6-yl)-N-(pyridazin-4-yl)benzamide]
C=CC(=O)N1CCC(c2cc(-c3ccc(C(=O)Nc4cc(OC)ccn4)c(F)c3)n3cnccc23)C1 (stereo not shown) [C148, 4-(5-(1-acryloylpyrrolidin-3-yl)pyrrolo[1,2-c]pyrimidin-7-yl)-2-fluoro-N-(4-methoxypyridin-2-yl)benzamide]
C=CC(=O)N1CCC(c2cc(-c3ccc(C(=O)Nc4cc(C5CC5)ccn4)cc3F)n3cnccc23)C1 (stereo not shown) [C149, 4-(5-(1-acryloylpyrrolidin-3-yl)pyrrolo[1,2-c]pyrimidin-7-yl)-N-(4-cyclopropylpyridin-2-yl)-3-fluorobenzamide]
C=CC(=O)N1CCC(c2cc(-c3ccc(C(=O)Nc4cc(OC)ccn4)cc3F)n3cnccc23)C1 (stereo not shown) [C150, 4-(5-(1-acryloylpyrrolidin-3-yl)pyrrolo[1,2-c]pyrimidin-7-yl)-3-fluoro-N-(4-methoxypyridin-2-yl)benzamide]
C=CC(=O)N1CCC(c2cc(-c3ccc(C(=O)Nc4cc(C#N)ccn4)cc3F)n3cnccc23)C1 (stereo not shown) [C151, 4-(5-(1-acryloylpyrrolidin-3-yl)pyrrolo[1,2-c]pyrimidin-7-yl)-N-(4-cyanopyridin-2-yl)-3-fluorobenzamide]
C=CC(=O)N1CCC(c2cc(-c3ccc(C(=O)Nc4cc(C(F)(F)F)ccn4)c(F)c3)n3cnccc23)C1 (stereo not shown) [C152, 4-(5-(1-acryloylpyrrolidin-3-yl)pyrrolo[1,2-c]pyrimidin-7-yl)-2-fluoro-N-(4-(trifluoro-methyl)pyridin-2-yl)benzamide]
C=CC(=O)N1CCC(c2cc(-c3ccc(C(=O)Nc4ccncc4)cc3)cc3cncnc23)C1 (stereo not shown) [C155, 4-(8-(1-acryloylpyrrolidin-3-yl)quinazolin-6-yl)-N-(pyridin-4-yl)benzamide]
C=CC(=O)Nc1cccc(-c2cc(-c3ccc(C(=O)Nc4cc(C#N)ccn4)c(OC)c3)cc3cncnc23)c1 [C156, 4-(8-(3-acrylamidophenyl)quinazolin-6-yl)-N-(4-cyanopyridin-2-yl)-2-methoxybenzamide]
C=CC(=O)N1CCC(c2cc(-c3ccc(Oc4ccccn4)cc3F)n3cnccc23)C1 (stereo not shown) [C159, 1-(3-(7-(2-fluoro-4-(pyridin-2-yloxy)phenyl)pyrrolo[1,2-c]pyrimidin-5-yl)pyrrolidin-1-yl)prop-2-en-1-one]
C=CC(=O)N1CCC(c2cc(-c3ccc(C(=O)Nc4cc(OC)ccn4)cc3)n3cnccc23)C1 (stereo not shown) [C162, 4-(5-(1-acryloylpyrrolidin-3-yl)pyrrolo[1,2-c]pyrimidin-7-yl)-N-(4-methoxypyridin-2-yl)benzamide]
C=CC(=O)N1CCC(c2cc(-c3ccc(C(=O)Nc4cc(C5CC5)ccn4)c(F)c3)n3cnccc23)C1 (stereo not shown) [C165, 4-(5-(1-acryloylpyrrolidin-3-yl)pyrrolo[1,2-c]pyrimidin-7-yl)-N-(4-cyclopropylpyridin-2-yl)-2-fluorobenzamide]
C=CC(=O)N1CCC(c2cc(-c3ccc(Oc4ccccn4)c(OC)c3)n3cnccc23)C1 (stereo not shown) [C167, 1-(3-(7-(3-methoxy-4-(pyridin-2-yloxy)phenyl)pyrrolo[1,2-c]pyrimidin-5-yl)pyrrolidin-1-yl)prop-2-en-1-one]
C=CC(=O)N1CCC(c2cc(-c3ccc(Oc4ccccn4)cc3OC)cc3cnc(N)nc23)C1 (stereo not shown) [C168, 1-(3-(2-amino-6-(2-methoxy-4-(pyridin-2-yloxy)phenyl)quinazolin-8-yl)pyrrolidin-1-yl)prop-2-en-1-one]
C=CC(=O)N1CCC(c2cc(-c3ccc(Oc4ccccn4)cc3OC)n3cnccc23)C1 (stereo not shown) [C169, 1-(3-(7-(2-methoxy-4-(pyridin-2-yloxy)phenyl)pyrrolo[1,2-c]pyrimidin-5-yl)pyrrolidin-1-yl)prop-2-en-1-one]
C=CC(=O)Nc1cccc(-c2cc(-c3ccc(C(=O)Nc4ccccn4)cc3)c(N)c3cncnc23)c1 [C170, 4-(8-(3-acrylamidophenyl)-5-aminoquinazolin-6-yl)-N-(pyridin-2-yl)benzamide]
C=CC(=O)N1CCC(c2cc(-c3ccc(C(=O)Nc4cc(C#N)ccn4)c(F)c3)n3cnccc23)C1 (stereo not shown) [C172, 4-(5-(1-acryloylpyrrolidin-3-yl)pyrrolo[1,2-c]pyrimidin-7-yl)-N-(4-cyanopyridin-2-yl)-2-fluorobenzamide]
C=CC(=O)Nc1cccc(-c2cc(-c3ccc(Oc4ccccn4)cc3F)c(N)c3cncnc23)c1 [C173, N-(3-(5-amino-6-(2-fluoro-4-(pyridin-2-yloxy)phenyl)quinazolin-8-yl)phenyl)acrylamide]
C=CC(=O)N1CCC(c2cc(-c3ccc(Oc4ccccn4)cc3F)c(N)c3cncnc23)C1 (stereo not shown) [C174, 1-(3-(5-amino-6-(2-fluoro-4-(pyridin-2-yloxy)phenyl)quinazolin-8-yl)pyrrolidin-1-yl)prop-2-en-1-one]
C=CC(=O)Nc1cccc(-c2cc(-c3ccc(C(=O)Nc4cc(C#N)ccn4)cc3)c(N)c3cncnc23)c1 [C176, 4-(8-(3-acrylamidophenyl)-5-aminoquinazolin-6-yl)-N-(4-cyanopyridin-2-yl)benzamide]
C=CC(=O)Nc1cccc(-c2cc(-c3ccc(C(=O)Nc4ccccn4)cc3F)c(N)c3cncnc23)c1 [C177, 4-(8-(3-acrylamidophenyl)-5-aminoquinazolin-6-yl)-3-fluoro-N-(pyridin-2-yl)benzamide]
C=CC(=O)Nc1cccc(-c2cc(-c3ccc(C(=O)Nc4ccccn4)cc3)c(N)c3cnc(N)nc23)c1 [C178, 4-(8-(3-acrylamidophenyl)-2,5-diamino-quinazolin-6-yl)-N-(pyridin-2-yl)benzamide]
C=CC(=O)Nc1cccc(-c2cc(-c3ccc(Oc4ccccn4)cc3)c(N)c3cncnc23)c1 [C179, N-(3-(5-amino-6-(4-(pyridin-2-yloxy)phenyl)quinazolin-8-yl)phenyl)acrylamide]
C=CC(=O)N1CCC(c2cc(-c3ccc(Oc4ccccn4)cc3)c(N)c3cncnc23)C1 (stereo not shown) [C181, 1-(3-(5-amino-6-(4-(pyridin-2-yloxy)phenyl)quinazolin-8-yl)pyrrolidin-1-yl)prop-2-en-1-one]
C=CC(=O)Nc1cccc(-c2cc(-c3ccc(Oc4ccccc4)cc3)c(N)c3cncnc23)c1 [C182, N-(3-(5-amino-6-(4-phenoxyphenyl)quinazolin-8-yl)phenyl)acrylamide]

Inhibition at 0.1 µM, > 50%:
C=CC(=O)Nc1cccc(-c2cc(-c3ccc(C(=O)Nc4cc(C5CC5)ccn4)cc3F)cc3cncnc23)c1 [C153, 4-(8-(3-acrylamidophenyl)quinazolin-6-yl)-N-(4-cyclopropylpyridin-2-yl)-3-fluorobenzamide]
C=CC(=O)Nc1cccc(-c2cc(-c3ccc(C(=O)Nc4cc(C#N)ccn4)cc3F)cc3cncnc23)c1 [C154, 4-(8-(3-acrylamidophenyl)quinazolin-6-yl)-N-(4-cyanopyridin-2-yl)-3-fluorobenzamide]
C=CC(=O)Nc1cccc(-c2cc(-c3ccc(Oc4ccccn4)cc3F)cc3cnc(N)nc23)c1 [C157, N-(3-(2-amino-6-(2-fluoro-4-(pyridin-2-yloxy)phenyl)quinazolin-8-yl)phenyl)acrylamide]
C=CC(=O)Nc1cccc(-c2cc(-c3ccc(Oc4ccccn4)c(F)c3)cc3cnc(N)nc23)c1 [C158, N-(3-(2-amino-6-(3-fluoro-4-(pyridin-2-yloxy)phenyl)quinazolin-8-yl)phenyl)acrylamide]
C=CC(=O)N1CCC(c2cc(-c3ccc(Oc4ccccn4)c(F)c3)cc3cncnc23)C1 (stereo not shown) [C160, 1-(3-(6-(3-fluoro-4-(pyridin-2-yloxy)phenyl)quinazolin-8-yl)pyrrolidin-1-yl)prop-2-en-1-one]
C=CC(=O)N1CCC(c2cc(-c3ccc(C(=O)Nc4cc(C#N)ccn4)cc3)n3cnccc23)C1 (stereo not shown) [C161, 4-(5-(1-acryloylpyrrolidin-3-yl)pyrrolo[1,2-c]pyrimidin-7-yl)-N-(4-cyanopyridin-2-yl)benzamide]
C=CC(=O)N1CCC(c2cc(-c3ccc(C(=O)Nc4cc(C5CC5)ccn4)cc3)n3cnccc23)C1 (stereo not shown) [C164, 4-(5-(1-acryloylpyrrolidin-3-yl)pyrrolo[1,2-c]pyrimidin-7-yl)-N-(4-cyclopropylpyridin-2-yl)benzamide]
C=CC(=O)Nc1cccc(-c2cc(-c3ccc(Oc4ccccn4)cc3OC)cc3cnc(N)nc23)c1 [C166, N-(3-(2-amino-6-(2-methoxy-4-(pyridin-2-yloxy)phenyl)quinazolin-8-yl)phenyl)acrylamide]
C=CC(=O)Nc1cccc(-c2cc(-c3ccc(C(=O)Nc4cc(C5CC5)ccn4)cc3)c(N)c3cncnc23)c1 [C171, 4-(8-(3-acrylamidophenyl)-5-aminoquinazolin-6-yl)-N-(4-cyclopropylpyridin-2-yl)benzamide]
C=CC(=O)Nc1cccc(-c2cc(-c3ccc(Oc4cc(C(F)(F)F)ccn4)cc3)cc3cncnc23)c1 [C175, N-(3-(6-(4-((4-(trifluoromethyl)pyridin-2-yl)oxy)phenyl)quinazolin-8-yl)phenyl)acrylamide]
C=CC(=O)Nc1cccc(-c2cc(-c3ccc(Oc4cc(C(F)(F)F)ccn4)cc3F)cc3cncnc23)c1 [C180]

Same assay, conditions: series of concentrations; GraphPad Prism 5

IC50, < 100 nM:
C=CC(=O)Nc1cccc(-c2cc(-c3ccc(C(=O)Nc4cc(C5CC5)ccn4)cc3F)cc3cncnc23)c1 [C153, 4-(8-(3-acrylamidophenyl)quinazolin-6-yl)-N-(4-cyclopropylpyridin-2-yl)-3-fluorobenzamide]
C=CC(=O)Nc1cccc(-c2cc(-c3ccc(Oc4ccccn4)cc3F)cc3cnc(N)nc23)c1 [C157, N-(3-(2-amino-6-(2-fluoro-4-(pyridin-2-yloxy)phenyl)quinazolin-8-yl)phenyl)acrylamide]
C=CC(=O)Nc1cccc(-c2cc(-c3ccc(Oc4ccccn4)c(F)c3)cc3cnc(N)nc23)c1 [C158, N-(3-(2-amino-6-(3-fluoro-4-(pyridin-2-yloxy)phenyl)quinazolin-8-yl)phenyl)acrylamide]
C=CC(=O)N1CCC(c2cc(-c3ccc(C(=O)Nc4cc(C#N)ccn4)cc3)n3cnccc23)C1 (stereo not shown) [C161, 4-(5-(1-acryloylpyrrolidin-3-yl)pyrrolo[1,2-c]pyrimidin-7-yl)-N-(4-cyanopyridin-2-yl)benzamide]
C=CC(=O)Nc1cccc(-c2cc(-c3ccc(Oc4ccccn4)cc3OC)cc3cnc(N)nc23)c1 [C166, N-(3-(2-amino-6-(2-methoxy-4-(pyridin-2-yloxy)phenyl)quinazolin-8-yl)phenyl)acrylamide]
C=CC(=O)Nc1cccc(-c2cc(-c3ccc(C(=O)Nc4cc(C5CC5)ccn4)cc3)c(N)c3cncnc23)c1 [C171, 4-(8-(3-acrylamidophenyl)-5-aminoquinazolin-6-yl)-N-(4-cyclopropylpyridin-2-yl)benzamide]
C=CC(=O)Nc1cccc(-c2cc(-c3ccc(Oc4cc(C(F)(F)F)ccn4)cc3)cc3cncnc23)c1 [C175, N-(3-(6-(4-((4-(trifluoromethyl)pyridin-2-yl)oxy)phenyl)quinazolin-8-yl)phenyl)acrylamide]
